Values joined by “and” are separate entries in the source; they are usually repeats but may differ in a detail not shown here. Equal entries are not always repeated. Inconclusive results and toxic doses are left out. Rule for the calls: active = survival T/C of 150% or more; inactive = T/C below 125% in these data.
Tested on: CD2F1 mice, L1210 leukemia ip, survival T/C
Test: NCI In Vivo Anticancer Drug Screen. Data for tumor model L1210 Leukemia (intraperitoneal) in CD2F1 (CDF1) mice
Conditions: endpoint: mean survival time, higher = longer survival
Outline: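 Ratio T/C, where T is the treated-group value and C the vehicle-dosed control value, from mice implanted with a transplantable tumor.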

[1] = dose: 100.0 mg/kg/injection, schedule: Q04DX003 (ip), vehicle: Klucel (hydroxypropylcellulose) (HPC)
[2] = dose: 200.0 mg/kg/injection, schedule: Q04DX003 (ip), vehicle: Klucel (hydroxypropylcellulose) (HPC)
[3] = dose: 25.0 mg/kg/injection, schedule: Q04DX003 (ip), vehicle: saline with Tween-80
[4] = dose: 50.0 mg/kg/injection, schedule: Q04DX003 (ip), vehicle: saline with Tween-80
[5] = dose: 100.0 mg/kg/injection, schedule: Q04DX003 (ip), vehicle: saline with Tween-80
[6] = dose: 50.0 mg/kg/injection, schedule: Q01DX009 (ip), vehicle: saline with Tween-80
[7] = dose: 100.0 mg/kg/injection, schedule: Q01DX009 (ip), vehicle: saline with Tween-80
[8] = dose: 200.0 mg/kg/injection, schedule: Q04DX003 (ip), vehicle: saline with Tween-80
[9] = dose: 400.0 mg/kg/injection, schedule: Q04DX003 (ip), vehicle: saline with Tween-80
[10] = dose: 100.0 mg/kg/injection, schedule: Q04DX003 (ip), vehicle: other
[11] = dose: 200.0 mg/kg/injection, schedule: Q04DX003 (ip), vehicle: other
[12] = dose: 400.0 mg/kg/injection, schedule: Q04DX003 (ip), vehicle: other
[13] = dose: 12.5 mg/kg/injection, schedule: Q04DX002 (ip), vehicle: saline with Tween-80
[14] = dose: 25.0 mg/kg/injection, schedule: Q04DX002 (ip), vehicle: saline with Tween-80
[15] = dose: 50.0 mg/kg/injection, schedule: Q04DX002 (ip), vehicle: saline with Tween-80
[16] = dose: 100.0 mg/kg/injection, schedule: Q04DX002 (ip), vehicle: saline with Tween-80
[17] = dose: 100.0 mg/kg/injection, schedule: Q01DX001 (ip), vehicle: saline with Tween-80
[18] = dose: 200.0 mg/kg/injection, schedule: Q01DX001 (ip), vehicle: saline with Tween-80
[19] = dose: 400.0 mg/kg/injection, schedule: Q01DX001 (ip), vehicle: saline with Tween-80
[20] = dose: 25.0 mg/kg/injection, schedule: Q01DX009 (ip), vehicle: saline with Tween-80
[21] = dose: 200.0 mg/kg/injection, schedule: Q01DX009 (ip), vehicle: saline with Tween-80
[22] = dose: 400.0 mg/kg/injection, schedule: Q01DX009 (ip), vehicle: saline with Tween-80

Measured: T/C

CC12CCC(=O)C=C1CCC1C2CCC2(C)C1CCC2(O)C(=O)Cn1c(=O)cc[nH]c1=O (centres undefined)
inactive: dose: 12.5 mg/kg/injection, schedule: Q04DX003 (ip), vehicle: Klucel (hydroxypropylcellulose) (HPC) 100 % of control | dose: 25.0 mg/kg/injection, schedule: Q04DX003 (ip), vehicle: Klucel (hydroxypropylcellulose) (HPC) 93 % of control | dose: 50.0 mg/kg/injection, schedule: Q04DX003 (ip), vehicle: Klucel (hydroxypropylcellulose) (HPC) 94 % of control | [1] 93 % of control | [2] 93 % of control

CC1NC=NC1C(c1ccccc1)c1ccccc1 (centres undefined)
inactive: [3] 102 % of control | [4] 109 % of control | [5] 101 % of control

NS(N)(=O)=O
inactive: dose: 100.0 mg/kg/injection, schedule: Q01DX009 (ip), vehicle: saline 105 % of control | dose: 200.0 mg/kg/injection, schedule: Q01DX009 (ip), vehicle: saline 100 % of control | dose: 400.0 mg/kg/injection, schedule: Q01DX009 (ip), vehicle: saline 97 % of control

CCCCCCCCCCCCCCCc1nnc(SC)s1
inactive: [6] 95 % of control | [7] 88 % of control | [5] 91 % of control | [8] 87 % of control | [9] 96 % of control

C[Si](C)(C)Oc1ccc(O[Si](C)(C)C)cc1
inactive: [10] 109 % of control | [11] 97 % of control | [12] 106 % of control

C=C(C(=O)OC)N1C(=O)CC(C)C1=O (centres undefined)
inactive: [13] 97 % of control | [14] 108 % of control | [15] 90 % of control | [16] 86 % of control

C(=N\N=C\c1ccccc1)/c1ccccc1
inactive: [17] 100 % of control | [5] 103 % of control | [18] 100 % of control | [8] 91 % of control | [19] 97 % of control | [9] 96 % of control

N#CCCOCC(COCCC#N)OCCC#N
inactive: [20] 97 % of control and 103 % of control | [6] 98 % of control and 103 % of control | [7] 97 % of control and 110 % of control | [21] 89 % of control and 103 % of control

Brc1ccc(-c2csc3cccc[n+]23)cc1
inactive: dose: 5.0 mg/kg/injection, schedule: Q04DX003 (ip), vehicle: saline with Tween-80 93 % of control | dose: 10.0 mg/kg/injection, schedule: Q04DX003 (ip), vehicle: saline with Tween-80 104 % of control | dose: 20.0 mg/kg/injection, schedule: Q04DX003 (ip), vehicle: saline with Tween-80 93 % of control

O=c1cc(CCl)oc(Br)c1O
inactive: [14] 98 % of control | [15] 98 % of control | [16] 91 % of control

NC(=S)Nc1ccc(C23CCC(CC2)CC3)cc1
inactive: [6] 101 % of control | [7] 101 % of control | [21] 109 % of control

Cc1cc(C)cc(NCCC#N)c1
inactive: dose: 100.0 mg/kg/injection, schedule: Q01DX009 (ip), vehicle: other 98 % of control | [10] 106 % of control | dose: 200.0 mg/kg/injection, schedule: Q01DX009 (ip), vehicle: other 98 % of control | [11] 100 % of control | dose: 400.0 mg/kg/injection, schedule: Q01DX009 (ip), vehicle: other 98 % of control | [12] 98 % of control

Cc1c([N+](=O)[O-])cc(C(C)(C)C)c(OC(=S)N(C)C)c1[N+](=O)[O-]
inactive: dose: 6.25 mg/kg/injection, schedule: Q01DX009 (ip), vehicle: saline with Tween-80 93 % of control | dose: 12.5 mg/kg/injection, schedule: Q01DX009 (ip), vehicle: saline with Tween-80 95 % of control | [20] 89 % of control

O=C(CCl)C(c1ccc([N+](=O)[O-])cc1)c1ccc([N+](=O)[O-])cc1
inactive: [7] 98 % of control | [5] 100 % of control | [21] 98 % of control | [8] 103 % of control | [22] 98 % of control | [9] 108 % of control

NC(=S)N/N=C/c1ccc([N+](=O)[O-])cc1
inactive: dose: 75.0 mg/kg/injection, schedule: Q01DX001 (ip), vehicle: saline with Tween-80 95 % of control

C1CCCCCC2=C(CCCC1)CCCO2
inactive: dose: 6.25 mg/kg/injection, schedule: Q04DX003 (ip), vehicle: saline with Tween-80 91 % of control | dose: 12.5 mg/kg/injection, schedule: Q04DX003 (ip), vehicle: saline with Tween-80 91 % of control | [3] 86 % of control | [4] 89 % of control | [5] 94 % of control | [8] 94 % of control

CC1CC(C)(C)N=C(C2CCCC2)O1 (centres undefined)
inactive: [17] 96 % of control | [18] 96 % of control | [19] 100 % of control

CCc1c(CC(=O)O)c2cc(C)ccc2n1Cc1ccc(Cl)cc1
inactive: dose: 3.12 mg/kg/injection, schedule: Q01DX009 (ip), vehicle: Klucel (hydroxypropylcellulose) (HPC) 91 % of control | dose: 6.25 mg/kg/injection, schedule: Q01DX009 (ip), vehicle: Klucel (hydroxypropylcellulose) (HPC) 104 % of control | dose: 12.5 mg/kg/injection, schedule: Q01DX009 (ip), vehicle: Klucel (hydroxypropylcellulose) (HPC) 107 % of control | dose: 25.0 mg/kg/injection, schedule: Q01DX009 (ip), vehicle: Klucel (hydroxypropylcellulose) (HPC) 102 % of control | dose: 50.0 mg/kg/injection, schedule: Q01DX009 (ip), vehicle: Klucel (hydroxypropylcellulose) (HPC) 91 % of control | dose: 100.0 mg/kg/injection, schedule: Q01DX009 (ip), vehicle: Klucel (hydroxypropylcellulose) (HPC) 96 % of control

Cc1c(C)c([N+](=O)[O-])c(Br)c(C)c1[N+](=O)[O-]
inactive: [7] 103 % of control | [5] 95 % of control | [21] 97 % of control | [8] 88 % of control | [22] 101 % of control | [9] 87 % of control

CCCCCCCCCCCCCCCCCC[N+](CCO)(CCO)Cc1ccc(C[N+](CCO)(CCO)CCCCCCCCCCCCCCCCCC)cc1
inactive: [13] 101 % of control | [14] 101 % of control | [15] 89 % of control

O=C1CCC(=O)N1N1C(=O)CCC1=O
inactive: dose: 100.0 mg/kg/injection, schedule: Q01DX001 (ip), vehicle: Klucel (hydroxypropylcellulose) (HPC) 101 % of control | dose: 200.0 mg/kg/injection, schedule: Q01DX001 (ip), vehicle: Klucel (hydroxypropylcellulose) (HPC) 96 % of control | dose: 400.0 mg/kg/injection, schedule: Q01DX001 (ip), vehicle: Klucel (hydroxypropylcellulose) (HPC) 96 % of control

CCOP(=O)(OCC)/C(C#N)=C\c1ccc(OC)c(OC)c1
inactive: [7] 98 % of control | [21] 94 % of control | [22] 100 % of control

CCOC(=N)c1ccccc1
inactive: [17] 94 % of control | [1] 103 % of control | [18] 97 % of control | [2] 101 % of control | [19] 102 % of control | dose: 400.0 mg/kg/injection, schedule: Q04DX003 (ip), vehicle: Klucel (hydroxypropylcellulose) (HPC) 105 % of control

From PubChem BioAssay AID256 (DTP/NCI, 2004)
